The values below come from ChEMBL document CHEMBL1201862, “PubChem BioAssay data set” (2004).

Assay [1] concerns the target T1, Sentrin-specific protease 8 (Homo sapiens, UniProt Q96LD8).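 Further: luminescence read-out of SENP8 inhibition, dose-response confirmation following an ultra-high-throughput screen.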
T1 sequence (Q96LD8 whole entry): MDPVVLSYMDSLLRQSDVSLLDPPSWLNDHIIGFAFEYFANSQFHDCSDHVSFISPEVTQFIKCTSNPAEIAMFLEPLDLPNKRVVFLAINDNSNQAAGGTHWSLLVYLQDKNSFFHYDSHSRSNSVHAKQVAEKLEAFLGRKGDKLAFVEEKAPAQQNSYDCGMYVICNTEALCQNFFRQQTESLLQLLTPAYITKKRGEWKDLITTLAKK
In kind it is functional.

Assay [2] addresses T2, Sentrin-specific protease 7 (Homo sapiens, UniProt Q9BQF6).
T2 sequence (Q9BQF6 whole entry): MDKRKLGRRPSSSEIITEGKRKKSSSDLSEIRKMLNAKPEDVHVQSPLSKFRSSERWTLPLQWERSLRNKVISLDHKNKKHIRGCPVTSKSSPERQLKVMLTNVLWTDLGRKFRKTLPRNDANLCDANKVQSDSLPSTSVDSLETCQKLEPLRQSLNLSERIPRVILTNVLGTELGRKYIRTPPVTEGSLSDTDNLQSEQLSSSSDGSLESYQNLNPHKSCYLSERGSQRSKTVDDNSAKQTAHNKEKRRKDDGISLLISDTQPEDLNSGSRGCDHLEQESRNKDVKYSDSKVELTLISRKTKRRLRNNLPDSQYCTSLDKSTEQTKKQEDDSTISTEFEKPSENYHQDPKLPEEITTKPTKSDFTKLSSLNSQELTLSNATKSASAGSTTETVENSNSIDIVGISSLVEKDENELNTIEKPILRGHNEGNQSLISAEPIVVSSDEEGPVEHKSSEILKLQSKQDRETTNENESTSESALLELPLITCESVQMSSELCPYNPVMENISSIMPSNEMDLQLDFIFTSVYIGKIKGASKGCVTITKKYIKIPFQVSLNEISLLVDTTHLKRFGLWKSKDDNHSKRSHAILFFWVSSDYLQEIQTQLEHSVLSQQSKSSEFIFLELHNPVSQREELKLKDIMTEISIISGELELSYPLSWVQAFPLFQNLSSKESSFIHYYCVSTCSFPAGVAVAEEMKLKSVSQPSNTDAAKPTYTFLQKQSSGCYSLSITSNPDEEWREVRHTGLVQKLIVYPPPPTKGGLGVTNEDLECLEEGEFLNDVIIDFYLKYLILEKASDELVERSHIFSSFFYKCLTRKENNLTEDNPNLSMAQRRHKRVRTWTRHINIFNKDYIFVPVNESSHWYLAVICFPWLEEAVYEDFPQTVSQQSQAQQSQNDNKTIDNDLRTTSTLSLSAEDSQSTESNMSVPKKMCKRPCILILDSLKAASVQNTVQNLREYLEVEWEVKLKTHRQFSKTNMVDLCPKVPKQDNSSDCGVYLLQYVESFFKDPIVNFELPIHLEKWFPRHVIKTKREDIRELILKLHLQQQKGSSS
The assay is classed as functional.

For assay [3], the target named is T3, Caspase-3 (Homo sapiens, UniProt P42574).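 Further: Dose-response selectivity test against caspase-3 for candidate inhibitors of sentrin-specific proteases (SENPs).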
T3 sequence (P42574 whole entry): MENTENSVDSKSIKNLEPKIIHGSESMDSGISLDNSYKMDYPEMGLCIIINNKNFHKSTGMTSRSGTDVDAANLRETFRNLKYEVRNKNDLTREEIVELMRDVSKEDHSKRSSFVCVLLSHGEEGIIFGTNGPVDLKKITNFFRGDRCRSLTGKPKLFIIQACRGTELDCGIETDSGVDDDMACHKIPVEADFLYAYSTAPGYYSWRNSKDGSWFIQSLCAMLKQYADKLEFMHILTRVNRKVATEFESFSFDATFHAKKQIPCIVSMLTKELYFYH
In kind it is functional.

For assay [4], the target named is T4, Sentrin-specific protease 6 (Homo sapiens, UniProt Q9GZR1).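 Further: Luminescence-based dose-response confirmatory assay of SENP6 inhibition, following up an ultra-high-throughput screen.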
T4 sequence (Q9GZR1 whole entry): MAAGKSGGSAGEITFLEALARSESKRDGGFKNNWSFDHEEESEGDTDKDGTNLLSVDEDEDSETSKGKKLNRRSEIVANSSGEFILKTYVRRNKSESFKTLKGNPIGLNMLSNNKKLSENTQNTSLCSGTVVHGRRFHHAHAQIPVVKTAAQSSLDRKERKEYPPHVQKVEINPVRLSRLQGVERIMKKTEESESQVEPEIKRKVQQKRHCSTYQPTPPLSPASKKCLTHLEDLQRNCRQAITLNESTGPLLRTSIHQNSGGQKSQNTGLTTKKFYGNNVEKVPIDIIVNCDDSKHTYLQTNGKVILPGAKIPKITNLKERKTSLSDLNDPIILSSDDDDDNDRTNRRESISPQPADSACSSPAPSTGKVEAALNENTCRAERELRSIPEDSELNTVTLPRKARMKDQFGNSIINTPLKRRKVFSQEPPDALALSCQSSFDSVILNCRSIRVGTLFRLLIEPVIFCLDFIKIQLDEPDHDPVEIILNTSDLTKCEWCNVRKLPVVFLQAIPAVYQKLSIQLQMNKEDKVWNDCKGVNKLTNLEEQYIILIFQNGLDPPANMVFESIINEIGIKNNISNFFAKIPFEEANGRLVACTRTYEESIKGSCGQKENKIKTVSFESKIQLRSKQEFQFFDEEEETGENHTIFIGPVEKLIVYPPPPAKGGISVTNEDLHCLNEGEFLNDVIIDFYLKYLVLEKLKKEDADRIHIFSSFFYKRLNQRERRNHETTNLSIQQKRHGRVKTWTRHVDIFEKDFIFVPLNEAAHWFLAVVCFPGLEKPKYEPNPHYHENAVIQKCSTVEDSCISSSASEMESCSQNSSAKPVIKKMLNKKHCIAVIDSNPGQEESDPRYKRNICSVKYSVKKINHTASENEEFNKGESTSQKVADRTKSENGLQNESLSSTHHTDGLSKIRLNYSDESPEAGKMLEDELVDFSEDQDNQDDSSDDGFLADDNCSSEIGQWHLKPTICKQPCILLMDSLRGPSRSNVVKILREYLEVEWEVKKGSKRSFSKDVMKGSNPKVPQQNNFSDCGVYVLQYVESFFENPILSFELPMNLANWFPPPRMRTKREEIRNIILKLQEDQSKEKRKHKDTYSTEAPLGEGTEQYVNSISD
In kind it is functional.

Assay [5] addresses T5, Heat shock factor protein 1 (Mus musculus, UniProt P38532).
T5 sequence (P38532 whole entry): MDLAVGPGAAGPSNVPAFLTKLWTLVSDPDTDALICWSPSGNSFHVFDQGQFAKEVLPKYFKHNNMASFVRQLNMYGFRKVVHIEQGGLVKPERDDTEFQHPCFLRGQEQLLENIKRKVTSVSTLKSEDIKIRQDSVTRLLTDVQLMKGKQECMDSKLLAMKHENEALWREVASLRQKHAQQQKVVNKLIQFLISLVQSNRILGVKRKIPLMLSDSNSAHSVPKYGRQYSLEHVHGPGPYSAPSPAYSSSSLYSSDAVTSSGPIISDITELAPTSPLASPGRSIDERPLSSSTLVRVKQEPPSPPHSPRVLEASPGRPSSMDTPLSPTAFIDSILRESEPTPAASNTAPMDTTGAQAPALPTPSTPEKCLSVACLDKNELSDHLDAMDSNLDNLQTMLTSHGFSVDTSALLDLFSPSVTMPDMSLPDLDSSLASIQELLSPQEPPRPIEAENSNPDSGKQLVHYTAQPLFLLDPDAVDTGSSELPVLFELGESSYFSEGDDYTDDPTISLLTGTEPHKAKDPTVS
In words: enhancement of HSF1-driven luciferase signal – cell-based, NIH3T3, luminescence, dose retest, confirmation (AID 435004).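 Further: stress induced by proteasome inhibitor MG132 added 30 min after compound; luciferase reporter driven by HSF1 response element in NIH3T3 cells; actives raise luminescence as potentiators of the MG132 stress response.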 In kind it is functional.

Assay [6] has as its target Cytochrome P450 2D6 (Homo sapiens, UniProt P10635).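 Further: CYP2D6 member of a cytochrome P450 panel assay.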
The target in assay [7] is T6, DNA repair and recombination protein RAD54-like (Homo sapiens, UniProt Q92698).
T6 sequence (Q92698 whole entry): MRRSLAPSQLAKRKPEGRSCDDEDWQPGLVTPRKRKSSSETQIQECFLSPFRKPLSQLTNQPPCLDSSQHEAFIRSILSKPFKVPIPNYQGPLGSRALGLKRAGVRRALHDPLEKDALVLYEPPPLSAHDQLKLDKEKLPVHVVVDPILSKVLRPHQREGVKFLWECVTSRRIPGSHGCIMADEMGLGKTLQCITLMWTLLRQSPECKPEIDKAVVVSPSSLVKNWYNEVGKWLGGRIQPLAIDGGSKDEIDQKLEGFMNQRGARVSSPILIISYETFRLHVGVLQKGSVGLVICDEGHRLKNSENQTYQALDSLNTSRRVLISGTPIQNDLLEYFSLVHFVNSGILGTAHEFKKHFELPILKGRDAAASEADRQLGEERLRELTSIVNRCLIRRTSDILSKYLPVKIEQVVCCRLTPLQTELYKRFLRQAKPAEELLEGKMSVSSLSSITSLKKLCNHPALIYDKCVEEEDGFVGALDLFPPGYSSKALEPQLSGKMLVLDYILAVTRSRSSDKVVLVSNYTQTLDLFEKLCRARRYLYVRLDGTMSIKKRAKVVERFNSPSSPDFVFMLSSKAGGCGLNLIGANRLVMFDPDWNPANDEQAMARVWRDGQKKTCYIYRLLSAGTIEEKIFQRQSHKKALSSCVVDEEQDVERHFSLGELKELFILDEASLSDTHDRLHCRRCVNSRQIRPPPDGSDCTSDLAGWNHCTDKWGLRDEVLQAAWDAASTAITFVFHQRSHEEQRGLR
In words: RAD54 Holliday junction migration blockers – biochemical, fluorescence, cherry-picked samples, dose series, confirmation (AID 651657). In kind it is functional.

The structures appear in SMILES notation. Activity calls are given as the source filed them. For most assays here, no stated cut-off is given here; in the data, actives have a measured IC50 and inactives only a lower limit.

Sequence of Cytochrome P450 2D6 (P10635 whole entry): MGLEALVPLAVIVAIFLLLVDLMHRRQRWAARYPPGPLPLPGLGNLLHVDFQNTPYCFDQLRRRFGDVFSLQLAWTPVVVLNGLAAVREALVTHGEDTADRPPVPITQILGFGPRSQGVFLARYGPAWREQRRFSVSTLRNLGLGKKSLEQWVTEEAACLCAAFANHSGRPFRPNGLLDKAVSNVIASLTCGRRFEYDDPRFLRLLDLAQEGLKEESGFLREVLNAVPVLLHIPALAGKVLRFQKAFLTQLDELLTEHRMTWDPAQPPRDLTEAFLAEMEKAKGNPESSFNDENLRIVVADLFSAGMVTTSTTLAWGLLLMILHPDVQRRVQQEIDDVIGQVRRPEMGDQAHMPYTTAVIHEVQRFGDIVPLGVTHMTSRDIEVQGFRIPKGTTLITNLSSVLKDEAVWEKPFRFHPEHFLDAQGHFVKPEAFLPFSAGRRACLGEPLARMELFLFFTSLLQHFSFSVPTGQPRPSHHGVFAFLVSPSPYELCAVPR

As for `CSc1ccccc1NC(=O)c1cc(C2CC2)on1`, the IC50 (as a rule, the midpoint of a concentration-inhibition curve) in assay [1] was 33.3 µM (active); in assay [2] it was 10.1 µM (active); in assay [3] it was 18.6 µM (active); in assay [4] it was 30.7 µM (active).

On to `CCOc1ccccc1NC(=O)Nc1ccc2c(c1)CCC2`, for which the half-inhibitory concentration (IC50) in assay [1] is 9.29 µM (active); in assay [2], 5.64 µM (active); in assay [3], 30.8 µM (active); in assay [4], 9.82 µM (active).

Turning to `COc1ccc(/C(C)=N/OCC(=O)Nc2nc3ccccc3s2)cc1OC`, the IC50 in assay [1] was 62.2 µM (active); in assay [2], 9.91 µM (active); in assay [3], 49.3 µM (active); in assay [4] it was 36.1 µM (active).

In the case of `CCOC(=O)Nc1ccc(C(=O)Oc2ccccc2)c(O)c1`, the IC50 in assay [1] is 79.9 µM (active); in assay [2] it was 11.6 µM (active); in assay [3] it was 61.3 µM (active); in assay [4], 47.6 µM (active). For the same compound, the EC50 (commonly the concentration needed to bring the measured effect to its halfway point) in assay [5] was 49.2 µM (active). Besides, the AC50 – broadly, the concentration giving half of the maximal activity seen – in assay [6] was 25.1 µM (inconclusive).

In the case of `O=C(Nc1cccc(Cl)c1)c1cc(S(=O)(=O)N2CCOCC2)cs1`, the AC50 in assay [7] was 30.1 µM (active).

Turning to `CN1CCN(c2nc(-c3cccs3)nc3ccccc23)CC1`, the AC50 in assay [7] was 8.93 µM (active).
